From the supplement of paper PMC10627819
Converted amounts (≈) assume the structure as drawn.

Columns and labels:
[1] = tested on: S. aureus DSM 20231; experiment: Bliss interaction score (quartile over a dose matrix) (fitness difference); higher = more antagonism (negative = synergy)
Method in brief: (§1)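 At entry into stationary phase, OD595 was recorded and divided by the robust mean of the no-drug wells on that plate, with any value above 1 set to 1. This gives the fitness measure used throughout. Single-drug fitness was inferred from combination data, and the Bliss score, observed minus product-expected fitness, is shown as quartiles across technical, biological and donor/recipient replicates.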

[2] = tested on: B. subtilis 168; experiment: as above
Method in brief: as §1

[3] = tested on: S. aureus Newman; experiment: as above
Method in brief: as §1

[4] = tested on: S. pneumoniae D39V; experiment: as above
Method in brief: as §1

[5] = tested on: S. aureus DSM 20231; experiment: fitness (endpoint OD595 vs no drug) (fraction); higher = more growth
Method in brief: (§2)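 At 37 °C, bacteria in TSB, LB Lennox or CY were grown in 384-well plates from a starting OD595 of 0.01. OD595 was measured every 30 min for 14 h, with the first reading used as background. Fitness is the optical density at the switch to stationary phase as a fraction of the robust mean of no-drug control wells, capped at 1.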

[6] = tested on: B. subtilis 168; experiment: as above
Method in brief: as §2

[7] = tested on: S. aureus Newman; experiment: as above
Method in brief: as §2

[8] = tested on: S. pneumoniae D39V; experiment: as above
Method in brief: as §2

[9] = tested on: B. subtilis 168
[10] = tested on: S. pneumoniae D39V
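Wherever Bliss interaction score (quartile over a dose matrix) is given: first quartile when negative (synergy) and third quartile when positive (antagonism).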

CO/N=C(\C(=O)N[C@@H]1C(=O)N2C(C(=O)O)=C(COC(C)=O)CS[C@H]12)c1csc(N)n1 [Cefotaxime] + COc1ccc(C[C@H](N)C(=O)N[C@H]2[C@@H](O)[C@H](n3cnc4c(N(C)C)ncnc43)O[C@@H]2CO)cc1 [Puromycin]
Settings | Bliss interaction score
[1] | 0.0471
[2] | 0.104
[3] | 0.0762
[4] | 0.11

fitness, one replicate
Settings | partner 0.39 µg/mL | partner 0.78 µg/mL | partner 1.56 µg/mL | partner 3.12 µg/mL | partner 6.24 µg/mL
[5], first compound 0.039 µg/mL | 0.811 | 0.79 | 0.806 | – | –
[5], first compound 0.078 µg/mL | – | – | – | 0.895 | 0.653
[5], first compound 0.156 µg/mL | – | – | – | 0.841 | 0.646
[5], first compound 0.312 µg/mL | – | – | – | 0.808 | 0.417
[6], first compound 0.00775 µg/mL | 0.887 | 0.903 | 0.816 | – | –
[6], first compound 0.0155 µg/mL | 0.71 | 0.726 | 0.668 | – | –
[6], first compound 0.031 µg/mL | 0.558 | 0.574 | 0.616 | – | –
[7], first compound 0.039 µg/mL | 0.734 | 0.771 | 0.719 | – | –
[7], first compound 0.625 µg/mL | 0.0309 | 0.0612 | 0.0601 | – | –
[7], first compound 1.25 µg/mL | 0.0598 | 0.0843 | 0.0641 | – | –
[7], first compound 2.5 µg/mL | 0.0418 | 0.0601 | 0.0425 | – | –

fitness
Settings | partner 0.39 µg/mL | partner 0.78 µg/mL | partner 1 µg/mL | partner 1.56 µg/mL | partner 2 µg/mL | partner 4 µg/mL
[5], first compound 0.078 µg/mL | 0.748 | 0.774 | – | 0.833 | – | –
[5], first compound 0.156 µg/mL | 0.72 | 0.781 | – | 0.796 | – | –
[5], first compound 0.312 µg/mL | 0.644 | 0.689 | – | 0.712 | – | –
[6], first compound 0.5 µg/mL | 0.267 | 0.284 | – | 0.312 | – | –
[6], first compound 1 µg/mL | 0.144 | 0.147 | – | 0.169 | – | –
[6], first compound 2 µg/mL | 0.113 | 0.125 | – | 0.147 | – | –
[7], first compound 0.078 µg/mL | 0.739 | 0.729 | – | 0.782 | – | –
[7], first compound 0.156 µg/mL | 0.633 | 0.698 | – | 0.702 | – | –
[7], first compound 0.312 µg/mL | 0.408 | 0.456 | – | 0.437 | – | –
[8], first compound 0.0018 µg/mL | – | – | 0.973 | – | ≥ 1 | 0.885
[8], first compound 0.0035 µg/mL | – | – | 0.931 | – | 0.975 | 0.766
[8], first compound 0.007 µg/mL | – | – | 0.93 | – | 0.919 | 0.662

N#CC(C#N)=NNc1cccc(Cl)c1 [CCCP]
[8]
Settings | fitness
0.575 µg/mL | 0.981
1.15 µg/mL | 0.968
2.3 µg/mL | 0.942

Settings | MIC [µg/mL]
[9] | 2.3 (≈ 11.2 µM)
[10] | 4.5 (≈ 22 µM)
